In patent US10392422B2, “Macrocyclic broad spectrum antibiotics” (priority 2014, dated 2019):
Values after ≈ are worked out from the molar mass of the structure shown. Like-named read-outs stand apart in the source and are kept apart here.

Assays:
Experiment in all cases: MIC, broth micro-dilution technique (CLSI)
[1] = tested on: MRSA COL (NRS100); format: cell-based, Staphylococcus aureus; settings: Staphylococcus aureus, 22 h, read-out: MIC (μg/mL) (COL)
Method in brief: (§1)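 Cation-adjusted MHB + 0.002% Tween-80; 10-point 2-fold series starting 64 μg/ml (modified protocol: 4 μg/mL). Final inoculum OD600 0.0005; 35° C, 22 h. MIC per CLSI M07-A8 broth microdilution.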

[2] = tested on: Escherichia coli MC4100 harboring the IMP4213; format: cell-based; settings: Escherichia coli, 22 h, read-out: MIC (μg/mL) E. coli, Table 1 protocol: serial 2-fold dilutions starting from 64 μg/ml; 35° C., 22 hours
Method in brief: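 MICs determined after 35 °C, 22 h incubation of bacteria (final OD600 0.0005) with 10-point 2-fold compound series. Series topped at 64 μg/ml in the standard protocol or 4 μg/mL in the modified one. Medium: cation-adjusted Mueller Hinton broth plus 0.002% Tween-80. E. coli MC4100 imp4213 has a permeabilized outer membrane.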

[3] = tested on: Methicillin Resistant Staphylococcus aureus strain USA 300 (NRS384); format: cell-based; settings: Staphylococcus aureus, 22 h, read-out: MIC (μg/mL) S. aureus
Method in brief: as §1

[4] = Table 1 protocol: serial 2-fold dilutions starting from 64 μg/ml, 35° C., 22 hours

SMILES | MIC [1, 4] | MIC [2] | MIC [3, 4] | MIC [1] | MIC [3]
C[C@H](NC(=O)[C@@H]1Cc2ccc(O)c(c2)-c2cc(ccc2O)[C@H](N(C)C(=O)[C@H](CCCCN)NC(=O)c2ccc(-c3ccc(Cl)cc3)cc2)C(=O)N[C@@H](C)C(=O)N1)C(=O)Cc1c[nH]nn1 [Compound 192] | 2 µg/mL (≈ 2.24 µM) | 64 µg/mL (≈ 71.7 µM) | 11 µg/mL (≈ 12.3 µM) | – | –
CCCCCCCCCCNCCC(=O)N[C@@H](CCCCN)C(=O)N(C)[C@@H]1C(=O)N[C@@H](C)C(=O)N[C@H](C(=O)N[C@@H](C)C(=O)c2nnn[nH]2)Cc2ccc(O)c(c2)-c2cc1ccc2OCCN [Compound 193] | 0.13 µg/mL (≈ 0.141 µM) | 8 µg/mL (≈ 8.7 µM) | 0.5 µg/mL (≈ 0.544 µM) | – | –
CC(NC(=O)[C@@H]1Cc2ccc(O)c(c2)-c2cc(ccc2O)[C@H](N(C)C(=O)[C@H](CCCCN)NC(=O)c2ccc(-c3ccc(Cl)cc3)cc2)C(=O)N[C@@H](C)C(=O)N1)C(=O)c1ncccn1 (stereo partly drawn) [Compound 194] | 4 µg/mL (≈ 4.5 µM) | 8 µg/mL (≈ 8.99 µM) | 8 µg/mL (≈ 8.99 µM) | – | –
COCC(=O)[C@H](C)NC(=O)[C@@H]1Cc2ccc(O)c(c2)-c2cc(ccc2OCCN)[C@H](N(C)C(=O)[C@H](CCCCN)NC(=O)c2ccc(-c3ccc(Cl)cc3)cc2)C(=O)N[C@@H](C)C(=O)N1 [Compound 195] | 0.38 µg/mL (≈ 0.423 µM) | 2 µg/mL (≈ 2.23 µM) | 2.8 µg/mL (≈ 3.12 µM) | – | –
CCCCCCCCCCNCCC(=O)N(C)[C@@H]1C(=O)N[C@@H](C)C(=O)N[C@H](C(=O)N[C@@H](C)C(C)=O)Cc2ccc(O)c(c2)-c2cc1ccc2O [Compound 196] | – | > 64 µg/mL | – | 1 µg/mL (≈ 1.44 µM) | 4 µg/mL (≈ 5.76 µM)
C[C@@H]1NC(=O)[C@@H](N(C)C(=O)[C@H](CCCCN)NC(=O)c2ccc(-c3ccc(Cl)cc3)cc2)c2ccc(O)c(c2)-c2cc(ccc2O)C[C@@H](C(=O)N[C@@H](C)C(=O)N(C)[C@H](C)C(N)=O)NC1=O [Compound 197] | 3.9 µg/mL (≈ 4.28 µM) | 32 µg/mL (≈ 35.1 µM) | 20 µg/mL (≈ 21.9 µM) | – | –
C[C@@H]1NC(=O)[C@@H](N(C)C(=O)[C@H](CCCCN)NC(=O)c2ccc(-c3ccc(Cl)cc3)cc2)c2ccc(O)c(c2)-c2cc(ccc2O)C[C@@H](C(=O)N[C@@H](C)C(=O)N(C)[C@@H](CO)C(N)=O)NC1=O [Compound 198] | 2 µg/mL (≈ 2.16 µM) | 16 µg/mL (≈ 17.3 µM) | 13 µg/mL (≈ 14 µM) | – | –
C[C@@H]1NC(=O)[C@@H](N(C)C(=O)[C@H](CCCCN)NC(=O)c2ccc(-c3ccc(Cl)cc3)cc2)c2ccc(O)c(c2)-c2cc(ccc2O)C[C@@H](C(=O)N[C@@H](CO)C(=O)N(C)[C@@H](C)C(N)=O)NC1=O [Compound 199] | 2 µg/mL (≈ 2.16 µM) | 64 µg/mL (≈ 69 µM) | 10 µg/mL (≈ 10.8 µM) | – | –
CCCCCCCCCCNCCC(=O)N[C@@H](CCCCN)C(=O)N(C)[C@@H]1C(=O)N[C@@H](C)C(=O)N[C@H](C(=O)N[C@@H](C)C(=O)COC(C)=O)Cc2ccc(O)c(c2)-c2cc1ccc2O [Compound 200] | 0.5 µg/mL (≈ 0.568 µM) | 64 µg/mL (≈ 72.7 µM) | 2 µg/mL (≈ 2.27 µM) | – | –
CCCCCCCCCCNCCC(=O)N[C@@H](CCCCN)C(=O)N(C)[C@@H]1C(=O)N[C@@H](C)C(=O)N[C@H](C(=O)N[C@@H](C)C(=O)CO)Cc2ccc(O)c(c2)-c2cc1ccc2OCCN [Compound 201] | 0.063 µg/mL (≈ 0.0715 µM) | 8 µg/mL (≈ 9.08 µM) | 0.35 µg/mL (≈ 0.397 µM) | – | –
CC(=O)[C@H](C)NC(=O)[C@@H]1Cc2ccc(O)c(c2)-c2cc(ccc2OCCCN)[C@H](N(C)C(=O)[C@H](CCCCN)NC(=O)c2ccc(-c3ccc(Cl)cc3)cc2)C(=O)N[C@@H](C)C(=O)N1 [Compound 202] | 0.5 µg/mL (≈ 0.567 µM) | 8 µg/mL (≈ 9.07 µM) | 2.8 µg/mL (≈ 3.17 µM) | – | –
CNCCNCCOc1ccc2cc1-c1cc(ccc1O)C[C@@H](C(=O)N[C@@H](C)C(C)=O)NC(=O)[C@H](C)NC(=O)[C@H]2N(C)C(=O)[C@H](CCCCN)NC(=O)c1ccc(-c2ccc(Cl)cc2)cc1 [Compound 204] | 1 µg/mL (≈ 1.08 µM) | 8 µg/mL (≈ 8.64 µM) | 11 µg/mL (≈ 11.9 µM) | – | –
CC(=O)[C@H](C)NC(=O)[C@@H]1Cc2ccc(O)c(c2)-c2cc(ccc2OCCNCC(=O)O)[C@H](N(C)C(=O)[C@H](CCCCN)NC(=O)c2ccc(-c3ccc(Cl)cc3)cc2)C(=O)N[C@@H](C)C(=O)N1 [Compound 205] | 6 µg/mL (≈ 6.48 µM) | 32 µg/mL (≈ 34.5 µM) | 32 µg/mL (≈ 34.5 µM) | – | –
CNCCCNCCOc1ccc2cc1-c1cc(ccc1O)C[C@@H](C(=O)N[C@@H](C)C(C)=O)NC(=O)[C@H](C)NC(=O)[C@H]2N(C)C(=O)[C@H](CCCCN)NC(=O)c1ccc(-c2ccc(Cl)cc2)cc1 [Compound 206] | 0.19 µg/mL (≈ 0.202 µM) | 4 µg/mL (≈ 4.26 µM) | 4 µg/mL (≈ 4.26 µM) | – | –
CC(=O)[C@H](C)NC(=O)[C@@H]1Cc2ccc(OCC(=O)O)c(c2)-c2cc(ccc2O)[C@H](N(C)C(=O)[C@H](CCCCN)NC(=O)c2ccc(-c3ccc(Cl)cc3)cc2)C(=O)N[C@@H](C)C(=O)N1 [Compound 207] | 6 µg/mL (≈ 6.79 µM) | 32 µg/mL (≈ 36.2 µM) | 32 µg/mL (≈ 36.2 µM) | – | –
CC(=O)[C@H](C)NC(=O)[C@@H]1Cc2ccc(OCC(=O)O)c(c2)-c2cc(ccc2OCCN)[C@H](N(C)C(=O)[C@H](CCCCN)NC(=O)c2ccc(-c3ccc(Cl)cc3)cc2)C(=O)N[C@@H](C)C(=O)N1 [Compound 208] | 6 µg/mL (≈ 6.48 µM) | 16 µg/mL (≈ 17.3 µM) | 23 µg/mL (≈ 24.8 µM) | – | –

SMILES | MIC [1, 4] | MIC [2] | MIC [3, 4] | MIC [1] | MIC [3]
CC(=O)[C@H](C)NC(=O)[C@@H]1Cc2ccc(OCCN)c(c2)-c2cc(ccc2OCCN)[C@H](N(C)C(=O)[C@H](CCCCN)NC(=O)c2ccc(-c3ccc(Cl)cc3)cc2)C(=O)N[C@@H](C)C(=O)N1 [Compound 209] | 0.13 µg/mL (≈ 0.143 µM) | 4 µg/mL (≈ 4.39 µM) | 0.5 µg/mL (≈ 0.549 µM) | – | –
CC(=O)[C@H](C)NC(=O)[C@@H]1Cc2ccc(O)c(c2)-c2cc(cc(CN)c2O)[C@H](N(C)C(=O)[C@H](CCCCN)NC(=O)c2ccc(-c3ccccc3)cc2)C(=O)N[C@@H](C)C(=O)N1 [Compound 210] | 4 µg/mL (≈ 4.88 µM) | 32 µg/mL (≈ 39 µM) | 32 µg/mL (≈ 39 µM) | – | –
C[C@@H]1NC(=O)[C@@H](N(C)C(=O)[C@H](CCCCN)NC(=O)c2ccc(-c3ccc(Cl)cc3)cc2)c2cc(c3oc(CN)cc3c2)-c2cc(ccc2O)C[C@@H](C(=O)O)NC1=O [Compound 211] | – | 2 µg/mL (≈ 2.47 µM) | – | 2 µg/mL (≈ 2.47 µM) | 11 µg/mL (≈ 13.6 µM)
CC(=O)[C@H](C)NC(=O)[C@@H]1Cc2ccc(O)c(c2)-c2cc(cc3cc(CN)oc23)[C@H](N(C)C(=O)[C@H](CCCCN)NC(=O)c2ccc(-c3ccc(Cl)cc3)cc2)C(=O)N[C@@H](C)C(=O)N1 [Compound 212] | 0.5 µg/mL (≈ 0.569 µM) | 5.7 µg/mL (≈ 6.49 µM) | 2.5 µg/mL (≈ 2.85 µM) | – | –
CC(=O)[C@H](C)NC(=O)[C@@H]1Cc2ccc(O)c(c2)-c2cc(cc(CCCN)c2OCCN)[C@H](N(C)C(=O)[C@H](CCCCN)NC(=O)c2ccc(-c3ccccc3)cc2)C(=O)N[C@@H](C)C(=O)N1 [Compound 213] | 2 µg/mL (≈ 2.24 µM) | 4 µg/mL (≈ 4.49 µM) | 16 µg/mL (≈ 18 µM) | – | –
CCCCCCCCCCNCCS(=O)(=O)N[C@@H](CCCCN)C(=O)N(C)[C@@H]1C(=O)N[C@@H](C)C(=O)N[C@H](C(=O)O)Cc2ccc(O)c(c2)-c2cc1ccc2O [Compound 214] | – | 64 µg/mL (≈ 81.1 µM) | – | 0.75 µg/mL (≈ 0.951 µM) | 2.8 µg/mL (≈ 3.55 µM)
CCCCCCCCCCNCCS(=O)(=O)N[C@@H](CCCCN)C(=O)N(C)[C@@H]1C(=O)N[C@@H](C)C(=O)N[C@H](C(=O)N[C@@H](C)C(=O)N2CCC[C@H]2C(N)=O)Cc2ccc(O)c(c2)-c2cc1ccc2O [Compound 215] | 0.25 µg/mL (≈ 0.261 µM) | > 64 µg/mL | 0.5 µg/mL (≈ 0.523 µM) | – | –
CCCCCCCCCCNCCS(=O)(=O)N[C@@H](CCCCN)C(=O)N(C)[C@@H]1C(=O)N[C@@H](C)C(=O)N[C@H](C(=O)N[C@@H](C)C(C)=O)Cc2ccc(O)c(c2)-c2cc1ccc2OCCN [Compound 216] | 0.063 µg/mL (≈ 0.0699 µM) | 64 µg/mL (≈ 71 µM) | 0.13 µg/mL (≈ 0.144 µM) | – | –
CCCCCCCCCNCCCS(=O)(=O)N[C@@H](CCCCN)C(=O)N(C)[C@@H]1C(=O)N[C@@H](C)C(=O)N[C@H](C(=O)N[C@@H](C)C(C)=O)Cc2ccc(O)c(c2)-c2cc1ccc2O [Compound 217] | 0.75 µg/mL (≈ 0.874 µM) | > 64 µg/mL | 2 µg/mL (≈ 2.33 µM) | – | –
CCCCCCCCCCNCCS(=O)(=O)N[C@@H](CCN)C(=O)N(C)[C@@H]1C(=O)N[C@@H](C)C(=O)N[C@H](C(=O)N[C@@H](C)C(C)=O)Cc2ccc(O)c(c2)-c2cc1ccc2O [Compound 218] | – | > 64 µg/mL | – | 0.13 µg/mL (≈ 0.157 µM) | 0.35 µg/mL (≈ 0.422 µM)
CCCCCCCCCCNCCS(=O)(=O)N[C@@H](CCCN)C(=O)N(C)[C@@H]1C(=O)N[C@@H](C)C(=O)N[C@H](C(=O)N[C@@H](C)C(C)=O)Cc2ccc(O)c(c2)-c2cc1ccc2O [Compound 219] | – | > 64 µg/mL | – | 0.13 µg/mL (≈ 0.154 µM) | 0.35 µg/mL (≈ 0.415 µM)
CCCCCCCCCCCCS(=O)(=O)N[C@@H](CCCCN)C(=O)N(C)[C@@H]1C(=O)N[C@@H](C)C(=O)N[C@H](C(=O)O)Cc2ccc(O)c(c2)-c2cc1ccc2O [Compound 220] | – | 16 µg/mL (≈ 20.7 µM) | – | 0.33 µg/mL (≈ 0.426 µM) | 2 µg/mL (≈ 2.58 µM)
CCCCCCCCCCCCS(=O)(=O)N[C@@H](CCCCN)C(=O)N(C)[C@@H]1C(=O)N[C@@H](C)C(=O)N[C@H](C(=O)N[C@@H](C)C(C)=O)Cc2ccc(O)c(c2)-c2cc1ccc2O [Compound 221] | 0.13 µg/mL (≈ 0.154 µM) | 45 µg/mL (≈ 53.4 µM) | 0.5 µg/mL (≈ 0.593 µM) | – | –
CCCCCCCCCCS(=O)(=O)N[C@@H](CCCCN)C(=O)N(C)[C@@H]1C(=O)N[C@@H](C)C(=O)N[C@H](C(=O)O)Cc2ccc(O)c(c2)-c2cc1ccc2O [Compound 222] | – | > 64 µg/mL | – | 3 µg/mL (≈ 4.02 µM) | 16 µg/mL (≈ 21.4 µM)
CC(=O)[C@H](C)NC(=O)[C@@H]1Cc2ccc(O)c(c2)-c2cc(ccc2O)[C@H](N(C)C(=O)[C@H](CCCCN)NS(=O)(=O)c2ccc(-c3ccc(Cl)cc3)cc2)C(=O)N[C@@H](C)C(=O)N1 [Compound 223] | 2 µg/mL (≈ 2.32 µM) | 32 µg/mL (≈ 37.1 µM) | 0.71 µg/mL (≈ 0.824 µM) | – | –
